Assay results taken from ChEMBL document CHEMBL4043145, “Pyridine-pyrimidine amides that prevent HGF-induced epithelial scattering by two distinct mechanisms” (Bioorg Med Chem Lett, 2017).

Experiments:
Format in all cases: functional
[1] = tested on: MDCK-II; assay: Antimigratory activity against MDCK2 cells assessed as inhibition of HGF-induced cell scattering at 1 uM pretreated for 18 hrs followed by HGF addition measured after 20 to 24 hrs by crystal violet staining-based assay relative to control; conditions: Canis lupus familiaris
[2] = Antimigratory activity against human SW.71 cells at 10 uM after 18 hrs by crystal violet staining-based assay relative to control; conditions: SW.71, 18 h
[3] = tested on: T47D; assay: Cell cycle arrest in human T47D cells assessed as accumulation at S phase at 300 nM (reference value: 19.89 to 24.55%)
[4] = tested on: MFE-280; assay: Cell cycle arrest in human MFE280 cells assessed as accumulation at G2/M phase at 300 nM (reference value: 16.43 to 17.9%)
[5] = tested on: PC-3; assay: Cell cycle arrest in human p53-null PC3 cells assessed as accumulation at G1 phase at 300 nM (reference value: 50.77 to 51.16%)
[6] = tested on: T47D; assay: Cell cycle arrest in human T47D cells assessed as accumulation at G2/M phase at 300 nM (reference value: 20.58 to 28.8%)
[7] = tested on: A2780; assay: Cell cycle arrest in human A2780 cells assessed as accumulation at S phase at 300 nM (reference value: 21.16 to 22.81%)
[8] = tested on: A2780; assay: Cell cycle arrest in human A2780 cells assessed as accumulation at G1 phase at 300 nM (reference value: 55.26 to 55.66%)
[9] = tested on: MCF7; assay: Cell cycle arrest in human MCF7 cells assessed as accumulation at G1 phase at 300 nM (reference value: 47.47 to 52.3%)
[10] = tested on: MFE-296; assay: Cell cycle arrest in human MFE296 cells assessed as accumulation at G2/M phase at 300 nM (reference value: 15.71 to 17.04%)
[11] = tested on: MCF7; assay: Cell cycle arrest in human MCF7 cells assessed as accumulation at G2/M phase at 300 nM (reference value: 20.06 to 22.33%)
[12] = tested on: MFE-280; assay: Cell cycle arrest in human MFE280 cells assessed as accumulation at S phase at 300 nM (reference value: 14.14 to 15.66%)
[13] = tested on: MFE-280; assay: Cell cycle arrest in human MFE280 cells assessed as accumulation at G1 phase at 300 nM (reference value: 64.99 to 67.86%)
[14] = tested on: A2780; assay: Cell cycle arrest in human A2780 cells assessed as accumulation at G2/M phase at 300 nM (reference value: 19.42 to 20.43%)
[15] = tested on: PC-3; assay: Cell cycle arrest in human p53-null PC3 cells assessed as accumulation at G2/M phase at 300 nM (reference value: 18.37 to 18.96%)
[16] = tested on: PC-3; assay: Cell cycle arrest in human p53-null PC3 cells assessed as accumulation at S phase at 300 nM (reference value: 29.08 to 29.33%)
[17] = tested on: T47D; assay: Cell cycle arrest in human T47D cells assessed as accumulation at G1 phase at 300 nM (reference value: 45.5 to 57.8%)
[18] = tested on: MFE-296; assay: Cell cycle arrest in human MFE296 cells assessed as accumulation at G1 phase at 300 nM (reference value: 61.05 to 64.87%)
[19] = tested on: MCF7; assay: Cell cycle arrest in human MCF7 cells assessed as accumulation at S phase at 300 nM (reference value: 25.36 to 26.82%)
[20] = tested on: MFE-296; assay: Cell cycle arrest in human MFE296 cells assessed as accumulation at S phase at 300 nM (reference value: 16.96 to 19.19%)

Row | SMILES | inhibition at 1 µM [1] | inhibition at 10 µM [2] | Activity [3] | Activity [4] | Activity [5] | Activity [6] | Activity [7] | Activity [8] | Activity [9] | Activity [10] | Activity [11] | Activity [12] | Activity [13] | Activity [14] | Activity [15] | Activity [16] | Activity [17] | Activity [18] | Activity [19] | Activity [20]
1 | Cc1nc(NC(=O)c2cncnc2)ccc1I | 249% | 80% |  |  |  |  |  |  |  |  |  |  |  |  |  |  |  |  |  | 
2 | CC(=O)O[C@H]1C(=O)[C@@]2(C)[C@H]([C@H](OC(=O)c3ccccc3)[C@]3(O)C[C@H](OC(=O)[C@H](O)[C@@H](NC(=O)c4ccccc4)c4ccccc4)C(C)=C1C3(C)C)[C@]1(OC(C)=O)CO[C@@H]1C[C@@H]2O [PACLITAXEL] |  |  | 27.89% | 39.59% | 8.25% | 41.49% | 10.42% | 13.37% | 3.43% | 51.88% | 86.54% | 22.1% | 34.74% | 70.7% | 70.82% | 20.78% | 30.62% | 26.72% | 7.07% | 19.73%
